According to patent US10406217B2, “Antifugetactic agents for the treatment of cancers” (The General Hospital Corporation, priority 2004, dated 2019):
Like-named read-outs stand apart in the source and are kept apart here.

Assays:
CXCR4 [1] = molecular target: T1, CXCR4 (Mus musculus, UniProt P70658); conditions: T-cells pre-incubated with 5 μg/ml AMD3100 for 30 min; 15 hours incubation
Method: The CXCR4 receptor was blocked by pre-incubation of T-cells with 5 μg/ml AMD3100 (Sigma, St. Louis, Mo.) for 30 min at 37° C. as previously described (70). Trajectories of migration were determined for randomly selected T-cells using Metamorph software. Cell path tracking and mean chemotropic indices (MCI) as a measurement of directionality of movement towards or away from β-TC3 cells were calculated using MetaMorph and MatLab software as previously described where an MCI of +0.1 to −0.1 indicates chemokinesis, >+0.1 indicates chemotaxis and <−0.1 indicates fugetaxis (Moghe, P. V., et al. 1995 J Immunol Methods 180, 193-211; McCutcheon, M. (1946) Physiological Reviews 26, 319).

CXCR4 [2] = molecular target: T1, CXCR4; conditions: OT-I preincubated with AMD3100 5 μg/ml; flat-bottom wells; SIINFEKL-pulsed targets; ±SEM
Method: Cytotoxicity of OT-I CD8+ cells was measured in a standard ^51Cr-release assay in round-bottom, wells as previously described (Brainard, D. M, et al. 2004. J Virol 78:5184-5193). The assay was also modified and performed in flat-bottom wells in order to determine the effects of CTL migration on killing efficacy in the context of target cells expressing SDF-1 (Hahne, M., et al. 1996 Science 274:1363-1366). B16/OVA.MSCV or B16/OVA.SDF1-high target cells were labeled with 100 μCi of ^51CR per 10^6 cells for 1 hour at 37° C. […] 30 μl of supernatant were harvested, and the radioactivity was counted in a γ-radiation counter. Cytotoxicity was expressed either as percent of lysis or as Lytic Unit 30 (LU30) as previously described (Brainard, D. M., et al. 2004. J Virol 78:5184-5193, Bryant, J., et al. 1992. J Immunol Meth 146:91-103). ^51Cr release assays were also performed in flat-bottom cells after preincubation of OT-I CD8+ T cells with the CXCR4 antagonist AMD3100 at concentrations of 0.25 and 1 μg/ml (Hatse, S. 2002 FEBS LETT 527:255-262).

CXCR4 [3] = molecular target: T1, CXCR4; conditions: Matthys et al. 2001; cited from earlier work
CXCR4 [4] = molecular target: T1, CXCR4; conditions: B16/OVA.MSCV vs B16/OVA.SDF-1-high tumor, OT-I T-cells incubated with AMD3100 0.08 and 0.25 μg/ml before adoptive transfer, MRI 24 hours, mean±SD, n=3
Method: (§1) In some experiments, activated OT-I CD8+ T cells were also preincubated with the CXCR4 antagonist, AMD3100, at concentrations of 0.08 and 0.25 μg/ml (15 min at RT) in a 12-well plate at a density of 1×10^7 cells/well prior to adoptive transfer (Hatse, S., et al. 2002, FEBS Lett 527:255). Survival analysis was evaluated in mice after in vivo generation of a tumor-specific memory T cell compartment (Bathe, O. F., et al. 2001, J Immunol 167:4511). 21 days after adoptive transfer of 1×10^7 OT-I CD8+ T cells (in 500 μl of HBSS via tail vein injection), two groups of mice (4 or 6 per group) were challenged s.c. in the right flank with 2×10^5 B 16/OVA.SDF-1-high cells or B16/OVA.MSCV control cells in 200 μl of HBSS using a 27 G needle (Bathe, O. F., et al. 2001, J Immunol 167:4511). […] Detectable tumor was considered to be >5 mm^2. Mice were sacrificed when tumors reached 400 mm^2 in size.

[5] = system: B16/OVA.SDF-1-high tumors; conditions: naïve mice, AMD3100 1.25 mg/kg s.c. twice a day, average±SD
Method: (§2) For in vitro growth, 5×10^5 tumor cells were seeded in T25 flasks (Becton Dickinson, Le Pont De Claix, France). Cultures were harvested daily for 3 consecutive days and viable cell yield determined. Tumorigenicity was determined by subcutaneous (s.c.) injection of 2×10^5 viable cells into the flank of mice in a total volume of 200 μl PBS using a 27 G needle. Tumor growth was also evaluated in naïve mice challenged with B16/OVA.MSCV or B16/OVA.SDF-1-high cells and injected twice a day s.c. with the CXCR4 antagonist. AMDS3100 (1.25 mg/kg s.c., Sigma). Tumor growth was measured every three or four days using a caliper. Tumor volume was recorded as the product of two orthogonal diameters (axb; a=longest diameter; b-orthogonal width) (Hanson, J. L., et al. 2000 Immunity 13:265-276). In immunization studies, mice were injected s.c. (at multiple sites) with 1×10^5 Irradiated (8568 cGy) B16/OVA.pc cells in a volume of 200 μl at d 0 and d 10. Fourteen days after immunization, mice were challenged s.c. in both flanks with 2×10^5 B16/OVA.MSCV B16/OVA.SDF-1 high cells, and tumor growth was measured as described above (Dranoff, G., et al. 1993 Proc Natl Acad Sci USA 90:3539-3543). In some experiments, mice were immunized with B16/OVA.SDF-1-high cells and then challenged with B16/OVA.SDF-1-high or B16/OVA.SDF-1-low cells. Mice were sacrificed when one or both tumors reached 200 mm^2 in volume.

B16/OVA.MSCV tumors = conditions: naïve mice, AMD3100 1.25 mg/kg s.c. twice a day from first day after challenge, average±SD
Method: as §2

CXCR4 [6] = molecular target: T1, CXCR4
Excerpt: Pregnant females at day 15.5 of gestation were sacrificed by CO2 asphyxiation, and embryos were chilled on ice. Fetal thymuses were carefully removed under a dissecting microscope, taking care to keep the anatomically identifiable lobes joined together. Thymuses were placed in HBSS and kept on ice. Individual thymuses were gently transferred onto the surface of a polycarbonate membrane of a 6.5 mm transwell insert with a 3.3 μm pore size (Corning Incorporated Life Sciences Action, Mass.). DMEM (360 μl) supplemented with 2 mM glutamine, 100 U/ml penicillin, 100 μg/ml streptomycin, 2×10^5 M 2-mercaptoethanol, 0.1 mM non-essential amino acids, 10% HEPES, and 10% FBS (Sigma) was added to the lower chamber of the transwell. This amount of medium allowed the thymus to be at the interface of medium and air. The cultures were incubated at 37° C., in 5% CO2, and medium was replaced every 3 days. Thymic emigrants, were collected from each thymus by transferring each transwell insert containing one thymus onto to a new well 24 hours before harvesting emigrant present in the lower chamber for analysis. On the day of analysis, two thymuses were harvested, and emigrants were pooled from at least 4 thymic lobes from CXCR4^+/− CXCR4^−/− mice. For each time-point, CXCR4^+/− and CXCR4^−/− thymuses from one or two pregnant females bred at the same time were analyzed, aiming to minimize differences in the stage of maturation and total cell recovery. E15.5 WT (CXCR4^+/+) thymuses were obtained from fetuses from C57BL/16 mice breedings. […] FTOC from DPC 15.5 CXCR4+/− or CXCR4−/−embryos were also prepared as above, and AMD3100 (0.5 or 1 gg/ml; Sigma) was added to the lower chamber of day 14 FTOC.
Thymic lobes were harvested and transferred to a 4-ml round bottom polystyrene tube containing 0.4 mg/ml collagenase (from Clostridium histolyticum, type V, clostridiopeptidase A, SIGMA Chemicals), 10% FBS, EDTA0.2 mg/ml and 0.2 M phosphate. After 30 minutes incubation at 37° C., thymuses were disaggregated by gentle pipetting until no visible fragments remained. Cell suspensions were washed once in HBSS and 10% FBS to prevent further enzyme action. Cells were resuspended in PBS containing 0.1% bovine serum albumin and counted using a hemocytometer. After incubation for 30 minutes on ice with 0.5 gg of 2.4G2 antibody to block Fc binding, direct staining for three or four color analysis was performed. Cell suspensions were incubated for 15 minutes at 4° C. and then washed twice with staining buffer and analyzed using a FACSCalibur (BD Biosciences). Data analysis was performed with FlowJo software (Tree Star, Inc. Ashland, Oreg.). […] For annexin V and PI staining, an Annexin V-FITC Apoptosis Detection Kit I was used (BD Pharmingen). […] Mean log fluorescence intensity (MFI) values were obtained by subtracting the MFI of the isotype control from the MFI of the positively stained sample. To evaluate whether the differences between the peaks of cells were statistically significant with respect to controls, the Kolmogorov-Smirnov test for analysis of histograms was used.

CXCR4 [7] = molecular target: T1, CXCR4; conditions: 48 hours
Method: as §1
Immunized mice and mice that received adoptive transfer of OT-I CD8+ T-cells were evaluated for T cell infiltration of tumors by immunohistochemistry. Animals were sacrificed and tumors excised with preservation of the capsule. Resected tumors were fixed in 10% neutral buffered formalin and embedded in paraffin. Serial 5 μm sections of tumors were stained with H & E or with polyclonal anti-CD3 Ab or isotype control Ab, followed by incubation with secondary HRP-labeled anti-rabbit Dako EnVision Ab (DakoCytomation). T-cell infiltration was quantified by counting four random 200× field powers of the turner sections, each […] in area.

Protein Kinase C = experiment: Microfluidic migration assay of neutrophils in linear IL-8 gradients (mean chemotropism index); assay type: cell-based, Human; conditions: 25 μM pretreatment; IL-8 gradient in which fugetaxis is predominant (600 nM to 1.2 μM); p=0.0001
Excerpt: Human whole blood was obtained from healthy volunteers by venipuncture into tubes-containing sodium heparin (Becton Dickinson, San Jose, Calif.). Neutrophils were isolated by density gradient centrifugation and purified by hypotonic lysis, as previously described (Tager, A. M., et al. 1998. Am J Respir Cell Mol Biol 19:643-52).
The microfluidic linear gradient generators were fabricated in poly(dimethylsiloxane) (PMDS; Sylgard 184, Dow Corning, N.Y.), and gradient generation was verified with fluorescin isothiocyanate (FITC; Sigma-Aldrich), as previously described (Li Jeon, N., et al. 2002. Nat Biotechnol 20:826-30; Whitesides, G. M., et al. 2001. Annu Rev Biomed Eng 3:335-73), […]
Cell movement was tracked using MetaMorph 4.5 (Universal Imaging, Dowington, Pa.) object tracking application, which generated tables of Cartesian coordinate data for each cell. Tracking data was analyzed in Excel (Microsoft, USA) and MATLAB 13 (The Mathworks, Inc., Newton, Mass.) to determine angular frequencies, mean squared displacements, migration velocities, persistence times, random motility coefficients, and random walk path lengths. […] For each cell, the squared displacement R(t) was calculated at time interval t, R^2(t)=(x(t0+t)−x(t0))^2+(y(t0+t)−y(t0))^2, (1) where t0 is the time at the origin. […]

[8] = system: Primary human neutrophils; experiment: Calcium flux in neutrophils in response to IL-8 (Fura-2); assay type: cell-based; conditions: calibrated against 5 μM ionomycin
Method: (§3) Calcium flux in neutrophils in response to IL-8 was measured as previously described (Mahon M. J., et al. 2004 J Biol Chem 279:23550-8). Briefly, isolated cells (˜10^7/ml) were transferred into a balanced salt solution (127 mM NaCl, 3.8 mM KCl, 1.2 mM KH2PO4, 1.2 mM CaCl2, 0.9 mM MgCl2, 5 mM glucose, and 10 mM HEPES, pH 7.4), incubated for 45 min at room temperature with 1.25 μM Fura-2 acetoxymethyl ester (Molecular Probes, Eugene, Oreg.), washed with the balanced salt solution, and unloaded for 15 min at room temperature. […] Calcium flux in response to indicated concentrations of IL-8 (Akahoshi T., et al. 1994 Lymphokine Cytokine Res 13:113-6) was measured by fluorescence of cells excited at 340 and 380 nm using a PTI Deltascan dual-wavelength fluorimeter (Photon Technologies Incorporated, Lawrenceville, N.J.), observed through a Nikon Diaphot 200 microscope (Melville, N.Y.) and Sensys charge-coupled device camera (Photometrics, Ltd., Tucson, Ariz.), and analyzed using the Poenie-Tsien ratio with Imagemaster 2 software (Photon Technologies Incorporated). Signaling responses to IL-8 at designated concentrations were calibrated against maximal calcium flux as determined by treatment with 5 μM ionomycin (Sigma). CXCR2 expression on neutrophils pre- and post-exposure to 120 nM, 1.2 μM and 2.4 μM IL-8 was determined using PE-labelled anti-CXCR2 IgGl antibody (R & D systems). […]

CXCR2 = CXCR2 staining of neutrophils following IL-8 exposure; assay type: cell-based, Human; conditions: single pulse of IL-8 at 12 nM, 120 nM, 1.2 μM and 2.4 μM; data not shown
Method: as §3

[9] = OT-I CD8+ T-cells incubated with 0.08 μg/ml AMD3100 before adoptive transfer
[10] = OT-I CD8+ T-cells incubated with 0.25 μg/ml AMD3100 before adoptive transfer

T1 sequence (P70658 whole entry): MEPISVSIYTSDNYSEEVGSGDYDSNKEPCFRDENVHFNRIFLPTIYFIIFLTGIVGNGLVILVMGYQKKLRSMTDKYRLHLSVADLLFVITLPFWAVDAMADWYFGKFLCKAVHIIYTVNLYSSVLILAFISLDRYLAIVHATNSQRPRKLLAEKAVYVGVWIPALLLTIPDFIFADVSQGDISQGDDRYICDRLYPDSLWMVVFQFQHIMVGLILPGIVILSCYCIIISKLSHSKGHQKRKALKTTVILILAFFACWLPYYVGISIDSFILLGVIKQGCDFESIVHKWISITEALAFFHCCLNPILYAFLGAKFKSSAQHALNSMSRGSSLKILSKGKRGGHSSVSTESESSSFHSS

Question: For `c1cc(CN2CCCNCCNCCCNCC2)ccc1CN1CCCNCCNCCCNCC1` [AMD3100], which “T-cell migration away from SDF-1 secreting MSCV.SDF-1 bright cells” value (CXCR4 [1]) is on record?
Answer: failed to migrate away from SDF-1 secreting cells

Question: And the “LU30, killing of B16/OVA.SDF-1-high cells by OT-I CD8+ T-cells” value (CXCR4 [2])?
Answer: 77×10^6±15

Question: What about the “intracellular Ca+ flux and chemotactic responses of murine splenocytes to SDF1” value (CXCR4 [3]) of the same compound?
Answer: inhibit

Question: What about the “ratio of T2 fit value in the right and left tumors” value (CXCR4 [4]) of the same compound?
Answer: 1+0.12

Question: And the “ratio of T2 fit value in the right and left tumors” value (CXCR4 [4]; listed as AM3100)?
Answer: 0.55±0.13

Question: And the “time for tumor growth to 200 mm^2” value [5]?
Answer: 23.6 ± 2.08 days

Question: What about the “average time to tumor growth to a size of 200 mm^2” value (B16/OVA.MSCV tumors) of the same compound?
Answer: 22 ± 2 days

Question: And the “total number of cells in the thymus” value (CXCR4 [6]; day 14 FTOC incubated 24 hours with 1 μg/ml AMD3100)?
Answer: 349±99.5 ×10^3/lobe

Question: And the “SP CD4 thymocytes emigrating from thymus” value (CXCR4 [6]; day 14 FTOC, 24 hours with 1 μg/ml AMD3100, mean±SEM)?
Answer: 1.1±0.15 ×10^3/love

Question: And the “CD62L^high CD4 SP cells in the thymus vs untreated” value (CXCR4 [6]; day 14 FTOC, 24 hours with 1 μg/ml AMD3100, p=0.017)?
Answer: retention of CD62L^high CD4 SP cells in the thymus

Question: And the “CD62L expression by SP CD8 thymocytes” value (CXCR4 [6]; day 14 FTOC, 24 hours with 1 μg/ml AMD3100, p=0.56)?
Answer: not affected

Question: And the “total number of SP CD8 emigrants vs untreated FTOC” value (CXCR4 [6]; day 14 FTOC, 24 hours with 1 μg/ml AMD3100, p=0.93)?
Answer: did not differ

Question: What about the “CD3+ T-cell infiltration into B16/OVA.SDF-1-high tumors” value (CXCR4 [7]; [9]) of the same compound?
Answer: 101±10.6 cells/mm^2

Question: And the “number of T-cells infiltrating B16/OVA.MSCV tumors” value (CXCR4 [7]; [9])?
Answer: 109±3.2 cells/mm^2

Question: What about the “CD3+ T-cell infiltration into B16/OVA.SDF-1-high tumors” value (CXCR4 [7]; [10]) of the same compound?
Answer: 88.1±16.9 cells/mm^2

Question: What about the “number of T-cells infiltrating B16/OVA.MSCV tumors” value (CXCR4 [7]; [10]) of the same compound?
Answer: 93±14.8 cells/mm^2

Question: With `CN(C)CCCn1cc(C2=C(c3c[nH]c4ccccc34)C(=O)NC2=O)c2ccccc21` [GF 109230X] as the compound, how does the “effect on neutrophil fugetaxis in IL-8 gradient” value (Protein Kinase C) read?
Answer: selectively inhibited fugetaxis and converted a fugetactic response into a predominantly chemoattraction response

Question: For “IL-8: human Interleukin-8 (72 amino acids; PeproTech), chemokine”, which “Peak calcium flux response (percentage of maximal calcium flux)” value ([8]; 120 nM IL-8) is on record?
Answer: 48%+/−5.1

Question: And the “Peak calcium flux response (percentage of maximal calcium flux)” value ([8]; 1.20 μM IL-8)?
Answer: 83%+/−7.9

Question: And the “reduction of CXCR2 mean fluorescent intensity from baseline” value (CXCR2)?
Answer: 2- to 3 fold
